According to patent publication US5646146A, “Heterocyclic compounds and their preparation and use” (Novo Nordisk A/S, priority 1993, dated 1997):

How the values were obtained:
[1] = test system: glycine site coupled to the NMDA ionophore complex; conditions: literature citations; cited from earlier work
[2] = test system: convulsions induced by i.c.v. infusion of NMDA; assay: Convulsions induced by i.c.v. infusion of NMDA, TV50 (Test 2); format: in vivo, mouse (male NMRI); conditions: dose infused i.c.v. per minute with NMDA to increase time to onset of clonic seizures by 50%
Procedure: The glycine antagonists are co-infused with NMDA and their anti-convulsive effect is measured by determining a) the TV50 value which represents the dose (μg/kg) of the glycine antagonist that has to be infused per minute in order to increase time to onset of clonic seizures by 50%, b) the ED50 value which represents the dose (μg/kg) of the glycine antagonist that has to be infused per minute in order to protect 50% of the animals against clonic seizures for 150 seconds after the start of i.c.v. infusion.
Convulsions induced by i.c.v. infusion of NMDA (Test 2 & 3)
58.84 μg/ml (1 nmol in 2.5 μl) of NMDA (Sigma) dissolved in 0.9% NaCl is co-infused i.c.v. with a glycine antagonist at a speed of 5 μl/min. Infusion is performed through a cannula placed 1 mm posterior and 1 mm lateral to the Bregma point. The cannula is injected 4.3 mm into the skull of male NMRI mice weighing 25 g (range 23-27 g). Placement and length of the cannula into the skull is fixed by a plate positioned 4.3 mm from the point of the cannula. The infusion is stopped after the appearance of clonic seizures in all extremities or 150 seconds after the start time of the infusion. At least 5 doses of each glycine antagonist are tested using 8 mice per dose.

[3] = biological target: T1, glycine site of the NMDA receptor complex (Rattus norvegicus, UniProt P35439); assay: In vitro [3H]-glycine binding to rat brain membranes (Test 1); parameters: species or system rat (male Wistar); conditions: 50% displacement of specific [3H]-glycine binding; 50 nM [3H]-glycine, 4° C., 30 min
T1 construct: Crude synaptic (P2) membranes are prepared from rat forebrains; from tissue; host or cells: rat forebrain (male Wistar), crude synaptic (P2) membranes, Triton X-100 washed
Procedure: The compounds according to the invention were tested as regards the affinity for one or more of the different types of excitatory amino acid receptors and studied in simple radioligand binding experiments. In essence, the method involves incubation of a particular selected radio-labelled ligand and the particular specific substance to be investigated with brain homogenates which contain the receptor. Measurement of receptor occupancy is made by determination of the specific radioactivity bound to the homogenate.
This will make them useful in the treatment of any of the numerous indications caused by hyperactivity of excitatory amino acids.
The glycine site binding activity of these compounds of the present invention can be illustrated by determining their capability for displacing radioactively labelled glycine from the glycine site.
The displacement activity of the compounds may be shown by determining the IC50 value which represents the concentration (μM) which causes a displacement of 50% of the specific binding of [^3 H]-glycine.
In vitro [^3 H]-Glycine Binding to Rat Brain Membranes (Test 1)
The membrane preparation and assay of specific [^3 H]-glycine binding is based upon methodology described by Haring et al. (1991) J. Neurochem. 57, 323-332 and Yoneda et al. (1991) J. Neurochem. 55, 237-244.
All steps are performed at 4° C. Buffers are prepared fresh each week from distilled, deionized water and filtered through sterile 0.2 μm membranes to eliminate artifacts due to microbial contamination. Crude synaptic (P2) membranes are prepared from rat forebrains freshly dissected from male Wistar rats and washed 4 times with low ionic strength buffer. On the day of the assay these preparations are additionally washed with buffer containing a low concentration (0.08% g/g) of Triton X-100, and then twice more in the absence of this detergent. The procedure is aimed at the disruption of synaptic membrane vesicles and removal of endogenous amino acids.
Specific radioligand binding is measured by incubating membranes (400-600 μg/ml of protein) with 50 nM [^3 H]-glycine in the presence or absence of 1 mM of unlabelled glycine at 4° C. for 30 min. Free and bound ligand are separated by centrifugation. Each pellet is rinsed 2× and bound radioactivity measured by liquid scintillation counting. Test substances are substituted for Unlabelled glycine in the assay.

SMILES	activity at the glycine site (agonist/antagonist, in words) [1]	Test 2 TV50 [2] [µg/kg]	IC50 [3] [nM]
N[C@H](CO)C(=O)O [D-serine]	strong agonist activity	–	–
NC1CCN(O)C1=O (stereo not shown) [HA-966, 3-amino-1-hydroxy-2-pyrrolidone]	weak antagonists	–	–
O=C(O)c1cc(O)c2ccc(Cl)cc2n1 [Example 7-Cl-Kyn, 7-chloro-kynurenic acid]	quite strong antagonists	–	–
O=c1[nH]c2c([nH]c1=O)C(O)c1ccccc1-2 (stereo not shown) [Example 11, 9-Hydroxy-9H-indeno[1,2-b]pyrazine-2,3(1H,4H) -dione]	–	5.0	920
C[C@@H](N)C(=O)O [D-alanine]	strong agonist activity	–	–
O=c1cnc2c([nH]1)-c1ccccc1C21OCCO1 [Example 6, 9H-Indeno[1,2-b]pyrazine-3,9(4H)-dione 9-ethylene acetal]	–	–	3700
N[C@@H]1CONC1=O [D-cycloserine]	partial agonists	–	–
CN1CCN(C2c3ccccc3-c3[nH]c(=O)c(=O)[nH]c32)CC1 (stereo not shown) [Example 18, 9-(4-Methyl-1-piperazinyl)-9H-indeno[1,2-b]pyrazine-2,3(1H,4H)-dione]	–	4.5	150
O=C1c2ccccc2-c2[nH]c(=O)c(=O)[nH]c21 [Example 2, 9H-Indeno[1,2-b]pyrazine-2,3,9(1H,4H)-trione]	–	44	920
N#Cc1cc2[nH]c(=O)c(=O)[nH]c2cc1[N+](=O)[O-] [CNQX, 6-cyano-7-nitroquinoxaline-2,3-dione]	weak antagonists	–	–
